Patent US10392363B2, “Methods for treating protozoan infections” (Neoculi Pty Ltd., priority 2014, dated 2019)

Key:
[1] = tested on: Giardia duodenalis (WB strain trophozoites); assay: Transmission electron microscopy study; format: cell-based; details: 6 μg/ml NCL812, 1 hour
Protocol: Samples were incubated at 37° C. for 1 hour (NCL treated) or 4 hours (Metronidazole and DMSO control) then cold shocked to detach trophozoites. Treated samples were centrifuged at 900×g for 10 minutes and washed twice with cold saline. Final cell pellet was resuspended in pre-cooled fixative (1.25% gluteraldehyde, 4% paraformaldehyde in PBS with 4% sucrose, pH 7.2) and left overnight. […] Samples were embedded in epoxy resin and stained with uranyl acetate and lead citrate before viewing on an FEI Tecnai G2 Spirit Transmission Electron Microscope.

[2] = Exposure in male Swiss outbred mice following IV administration; format: in vivo
Protocol: The systemic exposures of NCL026, NCL195, NCL259 and NCL812 were studied in nonfasted male Swiss outbred mice weighing 26.2-32.1 g. Mice had access to food and water ad libitum throughout the pre- and post-dose sampling period. Each compound was administered IV via a bolus injection into the tail vein (vehicle 20% (v/v) DMSO in PEG400, 1 mL/kg dose volume, n=8 mice per compound). […] A maximum of two samples were obtained from each mouse, with samples being taken either via submandibular bleed (approximately 120 μL; conscious sampling) or terminal cardiac puncture (0.6 mL; while mice were anaesthetised using inhaled Isoflurane). No urine samples were collected as mice were housed in bedded cages during the study. Blood was collected directly into polypropylene Eppendorf tubes containing heparin as anticoagulant, and stabilisation cocktail (containing Complete® (a protease inhibitor cocktail with EDTA) and potassium fluoride) to minimise the potential for ex vivo degradation of the test compounds in blood/plasma samples. Once collected, blood samples were centrifuged immediately, supernatant plasma was removed, and stored at −80° C. until analysis by LC-MS using methods standard in the art. Each compound was administered in a vehicle composed of 20% (v/v) DMSO in PEG400. Formulations were prepared by dissolving the compounds in DMSO prior to addition of PEG400. Formulations were not filtered prior to dosing and were administered to mice within 2.5 h of preparation. […] The dose administered to each mouse was calculated on the basis of the measured concentration in the IV formulation, the dose volume and individual mouse body weight. Plasma concentration versus time data were analysed using non-compartmental methods (WinNonlin Version 6.3.0.395). Standard calculations for each pharmacokinetic parameter were calculated using standard methods in the art.

[3] = Cell toxicity assay (WST-1); format: cell-based, mouse; details: mouse, RAW 264.7, 24 hours, read-out: GI50 macrophage
Protocol: Cell toxicity assays. Mouse macrophages (RAW 264.7) were grown in RPM11640 media supplemented with L-glutamine and 10% foetal calf serum. Cells were trypsanised when 80% confluent and subcultured every 3-4 days. For cytotoxicity assays cells were diluted to a final cell concentration of 2×10^4 cells/ml and 198 μl added to each well of a 96 well plate. Cells were incubated in a humidified incubator for 2 hours at 37° C. 5% CO2 before the addition of NCL compounds (2 μl/well, previously diluted in DMSO). Campothecin, triton X and DMSO only were used as controls. Cells were exposed to the compounds for 24 hours. The metabolic activity of the cells was determined using the WST-1 assay system (Roche Life Science). The supernatant was removed, 100 μl of PBS with 10% WST-1 was added to each well and incubated for 1 hr before reading absorbance at 450 nm. The selectivity index of the compounds was determined by dividing the IC50 of macrophages by the IC50 against parasites. IC50 was determined via graphpad prism software.

[4] = Microsomal stability, mouse; format: in vitro ADME; details: mouse, 1 μM
Protocol: (§1) Incubation methods: The metabolic stability assay was performed by incubating each test compound (at 1 μM) with human and mouse liver microsomes (Xenotech, Lot#1210057 and 1310211, respectively) at 37° C. and 0.4 mg/mL protein concentration. The metabolic reaction was initiated by the addition of an NADPH-regenerating system (i.e. NADPH is the cofactor required for CYP450-mediated metabolism) and quenched at various time points over a 60 minute incubation period by the addition of acetonitrile containing diazepam as internal standard. Control samples (containing no NADPH) were included (and quenched at 2, 30 and 60 minutes) to monitor for potential degradation in the absence of cofactor. Analytical conditions: Instrument: Waters Micromass Xevo G2 QTOF coupled to a Waters Acquity UPLC; Detection: Positive electrospray ionisation under MSE mode; Cone Voltage 30 V; Column: Ascentis Express Amide column (50×2.1 mm, 2.7 μm); LC conditions: Gradient cycle time: 4 minutes; Injection volume: 5 μL; Flow rate: 0.4 mL/min; Mobile phase: Acetonitrile-water gradient with 0.05% formic acid Metabolite; Identification: A metabolite screen was not included in this study, however, since data was acquired using MSE mode, which allows for the simultaneous acquisition of low and high collision energy MS spectra, a post-hoc metabolite search may be conducted at a later date if warranted. […]

[5] = Microsomal stability, human; format: in vitro ADME; details: human, 1 μM
Protocol: as §1

[6] = tested on: Giardia duodenalis trophozoites; assay: Resazurin reduction assay (Example 3); format: cell-based; details: 42 hours, then 6 hours with Alamarblue
Protocol: Giardia trophozoites were grown until confluent. The media was replaced with fresh media and they were cold shocked for 40 minutes (as above). Cells were diluted to a concentration of ˜500 000 cells/ml and 100 μl were added to each well of the assay plate (except media only control). The assay was incubated in an anaerobic environment (candle jar) for 42 hours at 37° C. […] After incubation the absorbance of each sample was read at 570 and 630 nm. The percent reduction of resazurin (Alamarblue™) was calculated and data was analysed with GraphPad Prism v6 software. Assay set-up: the assay was performed in 96 well plates in a total volume of 200 μl. 100 μl of NCL812 or NCL062 (concentration of 25.6 mg/ml in DMSO) or metronidazole (concentration 5 mg/ml in DMSO) stock was added to 9.9 ml of TYI-S-33 medium, then serially diluted 1:2 in the same medium. Cells were added as above.

N=C(N/N=C/c1ccc(Cl)cc1)N/N=C/c1ccc(Cl)cc1 [NCL812, 1,3-bis[(E)-(4-chlorophenyl)methyleneamino]guanidine]
changes to the ultrastructure of Giardia duodenalis [1]: significant changes | adverse reactions after IV dosing ([2]; IV, 5 mg/kg, one mouse): abnormal behaviour (frantic, hyperactive) | AUC0-inf ([2]; male, Swiss outbred, mouse, in vivo, IV 5 mg/kg, values marked a, b are approximations, read-out: AUC0-inf): 27.9 µM·h | Vd ([2]; male, Swiss outbred, mouse, in vivo, IV 5 mg/kg, values marked a, b are approximations, read-out: Plasma Vss): 5.9 L/kg | clearance ([2]; male, Swiss outbred, mouse, plasma, IV 5 mg/kg, values marked a, b are approximations, read-out: Plasma CL): 9.5 mL/min/kg | half-life ([2]; male, Swiss outbred, mouse, IV 5 mg/kg, plasma, value marked b is an approximation, read-out: Apparent t1/2 (converted)): 8.2 h | GI50 at 24 h [3]: 14.8 ± 1.34 µM | predicted hepatic extraction ratio (EH) [4]: < 0.3 | predicted hepatic extraction ratio (EH) [5]: < 0.3 | metabolic activity of the trophozoites (percentage of reduction of resazurin) [6]: reduction in the metabolic activity
